Measurements as given in ChEMBL document CHEMBL3044945, “Synthesis of 1,3,5-trisubstituted pyrazoline nucleus containing compounds and screening for antimicrobial activity” (2012).
Converted amounts (≈) assume the structure as drawn.

Legend:
Format in all cases: functional
Micrococcus luteus [1] = test: Antibacterial activity against Micrococcus luteus MTCC 1538 at 500 ug/ml after 48 hr by cup-plate method; details: MTCC 1538, 48 h, read-out: DIZ
Pseudomonas fluorescens [2] = test: Antibacterial activity against Pseudomonas fluorescens MTCC 2421 at 250 ug/ml after 48 hr by cup-plate method; details: MTCC 2421, 48 h, read-out: DIZ
Pseudomonas aeruginosa [3] = test: Antibacterial activity against Pseudomonas aeruginosa MTCC 424 at 500 ug/ml after 48 hr by cup-plate method; details: MTCC 424, 48 h, read-out: DIZ
Bacillus pumilus [4] = test: Antibacterial activity against Bacillus pumilus MTCC 1456 at 500 ug/ml after 48 hr by cup-plate method; details: MTCC 1456, 48 h, read-out: DIZ
Penicillium chrysogenum [5] = test: Antifungal activity against Penicillium chrysogenum MTCC 161 at 1000 ug/ml after 48 hr by cup-plate method; details: MTCC 161, 48 h, read-out: DIZ
Pseudomonas aeruginosa [6] = test: Antibacterial activity against Pseudomonas aeruginosa MTCC 424 at 750 ug/ml after 48 hr by cup-plate method; details: MTCC 424, 48 h, read-out: DIZ
Aspergillus niger [7] = test: Antifungal activity against Aspergillus niger MTCC 2546 at 100 ug/ml after 48 hr by cup-plate method; details: MTCC 2546, 48 h, read-out: DIZ
Pseudomonas fluorescens [8] = test: Antibacterial activity against Pseudomonas fluorescens MTCC 2421 at 750 ug/ml after 48 hr by cup-plate method; details: MTCC 2421, 48 h, read-out: DIZ
Micrococcus luteus [9] = test: Antibacterial activity against Micrococcus luteus MTCC 1538 at 1000 ug/ml after 48 hr by cup-plate method; details: MTCC 1538, 48 h, read-out: DIZ
Bacillus subtilis [10] = test: Antibacterial activity against Bacillus subtilis MTCC 441 after 24 to 48 hr by tube dilution method
Pseudomonas fluorescens [11] = test: Antibacterial activity against Pseudomonas fluorescens MTCC 2421 at 500 ug/ml after 48 hr by cup-plate method; details: MTCC 2421, 48 h, read-out: DIZ
Pseudomonas fluorescens [12] = test: Antibacterial activity against Pseudomonas fluorescens MTCC 2421 after 24 to 48 hr by tube dilution method
Bacillus pumilus [13] = test: Antibacterial activity against Bacillus pumilus MTCC 1456 at 100 ug/ml after 48 hr by cup-plate method; details: MTCC 1456, 48 h, read-out: DIZ
Bacillus subtilis [14] = test: Antibacterial activity against Bacillus subtilis MTCC 441 at 750 ug/ml after 48 hr by cup-plate method; details: MTCC 441, 48 h, read-out: DIZ
Staphylococcus aureus [15] = test: Antibacterial activity against Staphylococcus aureus MTCC 1430 at 750 ug/ml after 48 hr by cup-plate method; details: MTCC 1430, 48 h, read-out: DIZ
Aspergillus niger [16] = test: Antifungal activity against Aspergillus niger MTCC 2546 at 1250 ug/ml after 48 hr by cup-plate method; details: MTCC 2546, 48 h, read-out: DIZ
Pseudomonas aeruginosa [17] = test: Antibacterial activity against Pseudomonas aeruginosa MTCC 424 at 1250 ug/ml after 48 hr by cup-plate method; details: MTCC 424, 48 h, read-out: DIZ
Penicillium chrysogenum [18] = test: Antifungal activity against Penicillium chrysogenum MTCC 161 at 500 ug/ml after 48 hr by cup-plate method; details: MTCC 161, 48 h, read-out: DIZ
Staphylococcus aureus [19] = test: Antibacterial activity against Staphylococcus aureus MTCC 1430 after 24 to 48 hr by tube dilution method
Pseudomonas fluorescens [20] = test: Antibacterial activity against Pseudomonas fluorescens MTCC 2421 at 1250 ug/ml after 48 hr by cup-plate method; details: MTCC 2421, 48 h, read-out: DIZ
Bacillus pumilus [21] = test: Antibacterial activity against Bacillus pumilus MTCC 1456 at 1250 ug/ml after 48 hr by cup-plate method; details: MTCC 1456, 48 h, read-out: DIZ
Bacillus subtilis [22] = test: Antibacterial activity against Bacillus subtilis MTCC 441 at 100 ug/ml after 48 hr by cup-plate method; details: MTCC 441, 48 h, read-out: DIZ
Bacillus subtilis [23] = test: Antibacterial activity against Bacillus subtilis MTCC 441 at 500 ug/ml after 48 hr by cup-plate method; details: MTCC 441, 48 h, read-out: DIZ
Escherichia coli [24] = test: Antibacterial activity against Escherichia coli MTCC 1573 at 500 ug/ml after 48 hr by cup-plate method; details: MTCC 1573, 48 h, read-out: DIZ
Aspergillus niger [25] = test: Antifungal activity against Aspergillus niger MTCC 2546 at 1000 ug/ml after 48 hr by cup-plate method; details: MTCC 2546, 48 h, read-out: DIZ
Escherichia coli [26] = test: Antibacterial activity against Escherichia coli MTCC 1573 at 100 ug/ml after 48 hr by cup-plate method; details: MTCC 1573, 48 h, read-out: DIZ
Bacillus subtilis [27] = test: Antibacterial activity against Bacillus subtilis MTCC 441 at 250 ug/ml after 48 hr by cup-plate method; details: MTCC 441, 48 h, read-out: DIZ
Escherichia coli [28] = test: Antibacterial activity against Escherichia coli MTCC 1573 at 1250 ug/ml after 48 hr by cup-plate method; details: MTCC 1573, 48 h, read-out: DIZ
Staphylococcus aureus [29] = test: Antibacterial activity against Staphylococcus aureus MTCC 1430 at 1000 ug/ml after 48 hr by cup-plate method; details: MTCC 1430, 48 h, read-out: DIZ
Staphylococcus aureus [30] = test: Antibacterial activity against Staphylococcus aureus MTCC 1430 at 500 ug/ml after 48 hr by cup-plate method; details: MTCC 1430, 48 h, read-out: DIZ
Staphylococcus aureus [31] = test: Antibacterial activity against Staphylococcus aureus MTCC 1430 at 250 ug/ml after 48 hr by cup-plate method; details: MTCC 1430, 48 h, read-out: DIZ
Bacillus pumilus [32] = test: Antibacterial activity against Bacillus pumilus MTCC 1456 at 250 ug/ml after 48 hr by cup-plate method; details: MTCC 1456, 48 h, read-out: DIZ
Pseudomonas aeruginosa [33] = test: Antibacterial activity against Pseudomonas aeruginosa MTCC 424 after 24 to 48 hr by tube dilution method
Micrococcus luteus [34] = test: Antibacterial activity against Micrococcus luteus MTCC 1538 after 24 to 48 hr by tube dilution method
Escherichia coli [35] = test: Antibacterial activity against Escherichia coli MTCC 1573 after 24 to 48 hr by tube dilution method
Pseudomonas aeruginosa [36] = test: Antibacterial activity against Pseudomonas aeruginosa MTCC 424 at 250 ug/ml after 48 hr by cup-plate method; details: MTCC 424, 48 h, read-out: DIZ
Aspergillus niger [37] = test: Antifungal activity against Aspergillus niger MTCC 2546 at 500 ug/ml after 48 hr by cup-plate method; details: MTCC 2546, 48 h, read-out: DIZ
Escherichia coli [38] = test: Antibacterial activity against Escherichia coli MTCC 1573 at 250 ug/ml after 48 hr by cup-plate method; details: MTCC 1573, 48 h, read-out: DIZ
Bacillus pumilus [39] = test: Antibacterial activity against Bacillus pumilus MTCC 1456 at 750 ug/ml after 48 hr by cup-plate method; details: MTCC 1456, 48 h, read-out: DIZ
Micrococcus luteus [40] = test: Antibacterial activity against Micrococcus luteus MTCC 1538 at 1250 ug/ml after 48 hr by cup-plate method; details: MTCC 1538, 48 h, read-out: DIZ
Bacillus subtilis [41] = test: Antibacterial activity against Bacillus subtilis MTCC 441 at 1000 ug/ml after 48 hr by cup-plate method; details: MTCC 441, 48 h, read-out: DIZ
Micrococcus luteus [42] = test: Antibacterial activity against Micrococcus luteus MTCC 1538 at 750 ug/ml after 48 hr by cup-plate method; details: MTCC 1538, 48 h, read-out: DIZ
Penicillium chrysogenum [43] = test: Antifungal activity against Penicillium chrysogenum MTCC 161 at 250 ug/ml after 48 hr by cup-plate method; details: MTCC 161, 48 h, read-out: DIZ
Pseudomonas aeruginosa [44] = test: Antibacterial activity against Pseudomonas aeruginosa MTCC 424 at 1000 ug/ml after 48 hr by cup-plate method; details: MTCC 424, 48 h, read-out: DIZ
Pseudomonas fluorescens [45] = test: Antibacterial activity against Pseudomonas fluorescens MTCC 2421 at 1000 ug/ml after 48 hr by cup-plate method; details: MTCC 2421, 48 h, read-out: DIZ

MIC (Bacillus subtilis [10]): 30 µg/mL (≈ 79.7 µM)
MIC (Pseudomonas fluorescens [12]): 30 µg/mL (≈ 79.7 µM)
MIC (Staphylococcus aureus [19]): 150 µg/mL (≈ 398 µM)
MIC (Pseudomonas aeruginosa [33]): 50 µg/mL (≈ 133 µM)
MIC (Micrococcus luteus [34]): 150 µg/mL (≈ 398 µM)
MIC (Escherichia coli [35]): 50 µg/mL (≈ 133 µM)
SMILES: NC(=S)N1N=C(c2cccc3ccccc23)CC1c1ccc([N+](=O)[O-])cc1 (stereo not given)
zone of inhibition at 500 µg/mL (Micrococcus luteus [1]): 11 mm
zone of inhibition at 250 µg/mL (Pseudomonas fluorescens [2]): 10 mm
zone of inhibition at 500 µg/mL (Pseudomonas aeruginosa [3]): 12 mm
zone of inhibition at 500 µg/mL (Bacillus pumilus [4]): 16 mm
zone of inhibition at 1000 µg/mL (Penicillium chrysogenum [5]): 21 mm
zone of inhibition at 750 µg/mL (Pseudomonas aeruginosa [6]): 16 mm
zone of inhibition at 100 µg/mL (Aspergillus niger [7]): 10 mm
zone of inhibition at 750 µg/mL (Pseudomonas fluorescens [8]): 22 mm
zone of inhibition at 1000 µg/mL (Micrococcus luteus [9]): 16 mm
zone of inhibition at 500 µg/mL (Pseudomonas fluorescens [11]): 18 mm
zone of inhibition at 100 µg/mL (Bacillus pumilus [13]): 10 mm
zone of inhibition at 750 µg/mL (Bacillus subtilis [14]): 16 mm
zone of inhibition at 750 µg/mL (Staphylococcus aureus [15]): 11 mm
zone of inhibition at 1250 µg/mL (Aspergillus niger [16]): 26 mm
zone of inhibition at 1250 µg/mL (Pseudomonas aeruginosa [17]): 22 mm
zone of inhibition at 500 µg/mL (Penicillium chrysogenum [18]): 16 mm
zone of inhibition at 1250 µg/mL (Pseudomonas fluorescens [20]): 24 mm
zone of inhibition at 1250 µg/mL (Bacillus pumilus [21]): 21 mm
zone of inhibition at 100 µg/mL (Bacillus subtilis [22]): 9 mm
zone of inhibition at 500 µg/mL (Bacillus subtilis [23]): 12 mm
zone of inhibition at 500 µg/mL (Escherichia coli [24]): 11 mm
zone of inhibition at 1000 µg/mL (Aspergillus niger [25]): 24 mm
zone of inhibition at 100 µg/mL (Escherichia coli [26]): 8 mm
zone of inhibition at 250 µg/mL (Bacillus subtilis [27]): 11 mm
zone of inhibition at 1250 µg/mL (Escherichia coli [28]): 18 mm
zone of inhibition at 1000 µg/mL (Staphylococcus aureus [29]): 12 mm
zone of inhibition at 500 µg/mL (Staphylococcus aureus [30]): 10 mm
zone of inhibition at 250 µg/mL (Staphylococcus aureus [31]): 9 mm
zone of inhibition at 250 µg/mL (Bacillus pumilus [32]): 11 mm
zone of inhibition at 250 µg/mL (Pseudomonas aeruginosa [36]): 11 mm
zone of inhibition at 500 µg/mL (Aspergillus niger [37]): 17 mm
zone of inhibition at 250 µg/mL (Escherichia coli [38]): 9 mm
zone of inhibition at 750 µg/mL (Bacillus pumilus [39]): 18 mm
zone of inhibition at 1250 µg/mL (Micrococcus luteus [40]): 19 mm
zone of inhibition at 1000 µg/mL (Bacillus subtilis [41]): 19 mm
zone of inhibition at 750 µg/mL (Micrococcus luteus [42]): 14 mm
zone of inhibition at 250 µg/mL (Penicillium chrysogenum [43]): 11 mm
zone of inhibition at 1000 µg/mL (Pseudomonas aeruginosa [44]): 19 mm
zone of inhibition at 1000 µg/mL (Pseudomonas fluorescens [45]): 23 mm
